Results taken from ChEMBL document CHEMBL6127020, “Discovery of aminopiperidine based potent & novel topoisomerase inhibitor with broad spectrum anti-bacterial activity” (Bioorg Med Chem Lett, 2024).
Values after ≈ are worked out from the molar mass of the structure shown.

Columns and labels:
Staphylococcus aureus = experiment: Antibacterial activity against Staphylococcus aureus ATCC 29213 assessed as inhibition of bacterial growth; type: functional
Escherichia coli = experiment: Antibacterial activity against Escherichia coli ATCC 25922 assessed as inhibition of bacterial growth; type: functional
Cytochrome P450 2C8 = biological target: T1, Cytochrome P450 2C8 (Homo sapiens, UniProt P10632); experiment: Inhibition of CYP2C8 (unknown origin) at 10 uM; type: ADME
T1 sequence (P10632 whole entry): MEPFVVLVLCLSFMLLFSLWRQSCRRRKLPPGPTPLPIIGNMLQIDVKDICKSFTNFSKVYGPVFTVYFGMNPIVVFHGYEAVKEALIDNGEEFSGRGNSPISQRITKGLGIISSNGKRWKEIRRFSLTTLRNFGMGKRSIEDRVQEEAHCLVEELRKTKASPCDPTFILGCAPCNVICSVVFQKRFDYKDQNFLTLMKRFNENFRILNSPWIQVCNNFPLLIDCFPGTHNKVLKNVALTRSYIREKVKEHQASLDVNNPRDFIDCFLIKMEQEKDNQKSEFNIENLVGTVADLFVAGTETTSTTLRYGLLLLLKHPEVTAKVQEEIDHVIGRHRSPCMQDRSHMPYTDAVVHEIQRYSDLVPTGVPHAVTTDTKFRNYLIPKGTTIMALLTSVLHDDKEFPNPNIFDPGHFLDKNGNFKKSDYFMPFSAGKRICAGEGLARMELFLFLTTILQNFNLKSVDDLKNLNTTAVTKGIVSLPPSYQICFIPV

Cytochrome P450 3A4 = Cytochrome P450 3A4 (Homo sapiens, UniProt P08684); experiment: Inhibition of CYP3A4 (unknown origin) at 10 uM; type: ADME
Cytochrome P450 1A2 = biological target: T2, Cytochrome P450 1A2 (Homo sapiens, UniProt P05177); experiment: Inhibition of CYP1A2 (unknown origin) at 10 uM; type: ADME
T2 sequence (P05177 whole entry): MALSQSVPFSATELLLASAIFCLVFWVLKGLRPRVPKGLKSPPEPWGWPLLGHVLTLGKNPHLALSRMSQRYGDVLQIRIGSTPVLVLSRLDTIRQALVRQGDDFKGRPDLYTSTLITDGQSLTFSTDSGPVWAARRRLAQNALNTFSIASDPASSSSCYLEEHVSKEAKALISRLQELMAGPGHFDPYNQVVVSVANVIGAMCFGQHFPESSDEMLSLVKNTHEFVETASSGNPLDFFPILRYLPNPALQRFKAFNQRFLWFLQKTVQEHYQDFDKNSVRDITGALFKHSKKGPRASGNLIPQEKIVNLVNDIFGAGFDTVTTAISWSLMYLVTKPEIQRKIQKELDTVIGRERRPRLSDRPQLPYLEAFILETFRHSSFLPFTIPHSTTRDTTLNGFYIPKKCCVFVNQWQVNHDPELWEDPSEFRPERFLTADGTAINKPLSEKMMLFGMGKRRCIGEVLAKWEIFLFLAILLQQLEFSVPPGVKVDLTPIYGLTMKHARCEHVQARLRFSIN

Cytochrome P450 2C19 = Cytochrome P450 2C19 (Homo sapiens, UniProt P33261); experiment: Inhibition of CYP2C19 (unknown origin) at 10 uM; type: ADME
Topoisomerase IV = Topoisomerase IV (Staphylococcus aureus, UniProt P0C1S7+P0C1U9); experiment: Inhibition of Staphylococcus aureus DNA topoisomerase 4; type: protein-complex assay
Cytochrome P450 2D6 = Cytochrome P450 2D6 (Homo sapiens, UniProt P10635); experiment: Inhibition of CYP2D6 (unknown origin) at 10 uM; type: ADME
DNA gyrase = DNA gyrase (Staphylococcus aureus, UniProt P0A0K8+P20831); experiment: Inhibition of Staphylococcus aureus DNA gyrase; type: protein-complex assay
[1] = Cmax in C57 mouse at 3 mg/kg,po administration; type: ADME, organism-based; details: in vivo
[2] = Plasma protein binding in human; type: ADME, cell-free; details: read-out: PPB (converted)
[3] = Aqueous solubility of compound; type: physicochemical; details: buffer
[4] = C0 in C57 mouse at 1 mg/kg,iv administration; type: ADME, organism-based; details: in vivo
[5] = AUC (0 to t) in C57 mouse at 1 mg/kg,iv administration; type: ADME, organism-based; details: in vivo
[6] = MRT in C57 mouse at 1 mg/kg,iv administration; type: ADME, organism-based; details: in vivo
[7] = Clearance in C57 mouse at 1 mg/kg,iv administration; type: ADME, organism-based; details: in vivo
Pseudomonas aeruginosa = experiment: Antibacterial activity against Pseudomonas aeruginosa assessed as inhibition of bacterial growth; type: functional
[8] = Half life in C57 mouse at 1 mg/kg,iv administration; type: ADME, organism-based; details: in vivo
Acinetobacter baumannii = experiment: Antibacterial activity against Acinetobacter baumannii assessed as inhibition of bacterial growth; type: functional
[9] = AUC (0 to t) in C57 mouse at 3 mg/kg,po administration; type: ADME, organism-based; details: in vivo
[10] = Bioavailability in C57 mouse at 1 mg/kg,iv administration; type: ADME, organism-based; details: in vivo
[11] = Volume of distribution at steady state in C57 mouse at 1 mg/kg,iv administration; type: ADME, organism-based; details: in vivo, read-out: Vdss
[12] = Tmax in C57 mouse at 3 mg/kg,po administration; type: ADME, organism-based; details: in vivo
[13] = Solubility of compound in PBS; type: physicochemical; details: buffer

Chain of Topoisomerase IV (P0C1U9 whole entry): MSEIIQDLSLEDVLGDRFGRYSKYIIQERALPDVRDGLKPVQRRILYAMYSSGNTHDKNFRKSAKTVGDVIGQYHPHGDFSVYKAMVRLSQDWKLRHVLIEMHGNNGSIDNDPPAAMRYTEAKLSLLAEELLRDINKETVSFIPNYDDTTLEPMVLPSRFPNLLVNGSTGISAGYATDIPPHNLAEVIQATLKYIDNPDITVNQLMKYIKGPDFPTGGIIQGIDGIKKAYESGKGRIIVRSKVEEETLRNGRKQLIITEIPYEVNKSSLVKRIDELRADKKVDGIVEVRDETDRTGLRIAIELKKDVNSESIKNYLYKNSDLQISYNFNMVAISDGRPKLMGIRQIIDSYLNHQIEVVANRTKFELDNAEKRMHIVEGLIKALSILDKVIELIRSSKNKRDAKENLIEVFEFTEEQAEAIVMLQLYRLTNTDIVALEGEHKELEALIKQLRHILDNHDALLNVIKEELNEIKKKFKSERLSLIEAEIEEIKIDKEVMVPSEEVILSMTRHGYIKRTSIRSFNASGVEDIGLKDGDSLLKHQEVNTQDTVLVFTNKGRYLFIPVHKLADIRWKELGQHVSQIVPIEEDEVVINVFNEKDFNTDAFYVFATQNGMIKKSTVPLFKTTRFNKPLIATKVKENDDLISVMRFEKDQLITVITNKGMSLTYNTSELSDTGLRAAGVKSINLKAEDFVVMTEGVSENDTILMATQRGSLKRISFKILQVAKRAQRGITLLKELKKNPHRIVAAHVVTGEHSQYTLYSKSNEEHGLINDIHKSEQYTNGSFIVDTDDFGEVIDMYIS
Chain of Topoisomerase IV (P0C1S7 whole entry): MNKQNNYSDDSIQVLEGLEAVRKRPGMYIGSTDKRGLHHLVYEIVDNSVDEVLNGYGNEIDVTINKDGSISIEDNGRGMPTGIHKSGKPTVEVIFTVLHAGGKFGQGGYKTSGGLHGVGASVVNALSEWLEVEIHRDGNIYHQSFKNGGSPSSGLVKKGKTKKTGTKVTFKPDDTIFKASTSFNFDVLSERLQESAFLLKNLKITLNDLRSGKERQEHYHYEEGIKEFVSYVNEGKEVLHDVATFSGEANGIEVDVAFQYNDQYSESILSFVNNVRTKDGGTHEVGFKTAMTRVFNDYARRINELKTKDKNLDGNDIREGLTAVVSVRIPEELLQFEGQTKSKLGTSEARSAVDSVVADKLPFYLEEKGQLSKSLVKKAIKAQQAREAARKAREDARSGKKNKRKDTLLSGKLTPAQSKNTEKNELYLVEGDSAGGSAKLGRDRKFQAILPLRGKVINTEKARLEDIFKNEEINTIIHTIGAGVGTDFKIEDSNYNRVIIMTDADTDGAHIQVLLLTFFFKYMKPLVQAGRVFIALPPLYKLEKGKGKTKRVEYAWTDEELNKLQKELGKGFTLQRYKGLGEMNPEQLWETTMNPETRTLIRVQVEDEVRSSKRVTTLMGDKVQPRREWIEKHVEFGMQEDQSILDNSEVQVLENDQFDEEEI
Chain of DNA gyrase (P0A0K8 whole entry): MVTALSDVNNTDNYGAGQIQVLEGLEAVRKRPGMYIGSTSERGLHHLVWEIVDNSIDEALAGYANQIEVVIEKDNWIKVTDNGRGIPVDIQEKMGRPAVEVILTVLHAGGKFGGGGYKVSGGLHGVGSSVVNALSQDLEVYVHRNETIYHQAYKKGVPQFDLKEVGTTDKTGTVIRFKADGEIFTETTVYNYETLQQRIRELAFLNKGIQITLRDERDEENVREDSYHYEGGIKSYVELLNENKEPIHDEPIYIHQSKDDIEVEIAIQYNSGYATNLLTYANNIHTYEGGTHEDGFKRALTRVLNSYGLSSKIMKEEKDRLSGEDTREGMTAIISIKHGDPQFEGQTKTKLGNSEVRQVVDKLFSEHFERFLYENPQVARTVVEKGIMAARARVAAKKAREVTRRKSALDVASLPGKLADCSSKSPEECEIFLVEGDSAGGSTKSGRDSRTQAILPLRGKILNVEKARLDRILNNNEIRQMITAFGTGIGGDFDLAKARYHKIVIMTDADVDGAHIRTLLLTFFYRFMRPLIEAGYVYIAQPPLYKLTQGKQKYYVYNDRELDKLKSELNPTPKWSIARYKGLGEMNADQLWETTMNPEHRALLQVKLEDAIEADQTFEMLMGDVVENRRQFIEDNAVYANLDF
Chain of DNA gyrase (P20831 whole entry): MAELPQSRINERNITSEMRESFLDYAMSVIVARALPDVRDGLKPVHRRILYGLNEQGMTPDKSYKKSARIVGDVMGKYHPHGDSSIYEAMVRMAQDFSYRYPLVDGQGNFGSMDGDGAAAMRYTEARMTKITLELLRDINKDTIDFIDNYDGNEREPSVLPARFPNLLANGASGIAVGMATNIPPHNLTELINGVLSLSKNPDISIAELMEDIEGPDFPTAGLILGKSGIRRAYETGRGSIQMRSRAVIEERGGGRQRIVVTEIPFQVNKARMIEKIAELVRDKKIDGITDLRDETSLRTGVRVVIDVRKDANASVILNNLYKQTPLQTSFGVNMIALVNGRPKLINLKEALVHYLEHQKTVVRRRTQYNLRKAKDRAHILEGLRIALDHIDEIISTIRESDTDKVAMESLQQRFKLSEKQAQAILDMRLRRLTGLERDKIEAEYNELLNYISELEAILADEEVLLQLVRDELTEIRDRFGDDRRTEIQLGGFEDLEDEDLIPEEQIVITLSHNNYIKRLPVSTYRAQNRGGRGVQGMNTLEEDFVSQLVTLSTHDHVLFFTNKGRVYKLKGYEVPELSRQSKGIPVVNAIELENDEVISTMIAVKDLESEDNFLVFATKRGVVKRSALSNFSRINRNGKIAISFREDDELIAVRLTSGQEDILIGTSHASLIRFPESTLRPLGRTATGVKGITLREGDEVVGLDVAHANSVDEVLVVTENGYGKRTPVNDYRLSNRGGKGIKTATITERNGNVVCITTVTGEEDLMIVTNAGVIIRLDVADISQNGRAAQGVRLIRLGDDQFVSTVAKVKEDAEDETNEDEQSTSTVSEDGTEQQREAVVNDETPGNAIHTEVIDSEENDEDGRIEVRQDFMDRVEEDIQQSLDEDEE
Chain of Cytochrome P450 2D6 (P10635 whole entry): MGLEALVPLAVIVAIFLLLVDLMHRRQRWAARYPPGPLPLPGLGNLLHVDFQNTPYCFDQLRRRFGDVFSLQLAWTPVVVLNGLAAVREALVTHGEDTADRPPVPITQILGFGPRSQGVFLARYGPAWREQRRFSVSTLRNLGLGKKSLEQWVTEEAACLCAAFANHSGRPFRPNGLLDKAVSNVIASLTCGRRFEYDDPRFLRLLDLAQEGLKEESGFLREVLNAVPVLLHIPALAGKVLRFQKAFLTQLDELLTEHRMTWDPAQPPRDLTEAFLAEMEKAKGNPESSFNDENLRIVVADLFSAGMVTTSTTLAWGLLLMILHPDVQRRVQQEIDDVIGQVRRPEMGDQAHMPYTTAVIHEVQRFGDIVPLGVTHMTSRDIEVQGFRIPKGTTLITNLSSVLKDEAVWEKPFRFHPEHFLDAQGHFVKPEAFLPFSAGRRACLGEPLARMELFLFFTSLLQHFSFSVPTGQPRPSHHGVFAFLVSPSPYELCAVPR
Chain of Cytochrome P450 3A4 (P08684 whole entry): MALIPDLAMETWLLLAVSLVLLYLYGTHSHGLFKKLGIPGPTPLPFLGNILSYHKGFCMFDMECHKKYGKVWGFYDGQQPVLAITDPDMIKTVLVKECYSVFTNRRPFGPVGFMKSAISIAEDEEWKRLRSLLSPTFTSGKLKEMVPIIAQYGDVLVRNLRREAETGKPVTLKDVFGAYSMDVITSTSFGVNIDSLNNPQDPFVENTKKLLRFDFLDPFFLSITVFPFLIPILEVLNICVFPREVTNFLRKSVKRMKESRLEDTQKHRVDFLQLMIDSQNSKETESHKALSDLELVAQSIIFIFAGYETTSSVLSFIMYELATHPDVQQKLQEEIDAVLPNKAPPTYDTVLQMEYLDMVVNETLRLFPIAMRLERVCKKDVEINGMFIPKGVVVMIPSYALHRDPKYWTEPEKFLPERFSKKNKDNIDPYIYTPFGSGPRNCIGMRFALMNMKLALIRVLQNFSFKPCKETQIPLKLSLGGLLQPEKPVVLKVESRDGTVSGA
Chain of Cytochrome P450 2C19 (P33261 whole entry): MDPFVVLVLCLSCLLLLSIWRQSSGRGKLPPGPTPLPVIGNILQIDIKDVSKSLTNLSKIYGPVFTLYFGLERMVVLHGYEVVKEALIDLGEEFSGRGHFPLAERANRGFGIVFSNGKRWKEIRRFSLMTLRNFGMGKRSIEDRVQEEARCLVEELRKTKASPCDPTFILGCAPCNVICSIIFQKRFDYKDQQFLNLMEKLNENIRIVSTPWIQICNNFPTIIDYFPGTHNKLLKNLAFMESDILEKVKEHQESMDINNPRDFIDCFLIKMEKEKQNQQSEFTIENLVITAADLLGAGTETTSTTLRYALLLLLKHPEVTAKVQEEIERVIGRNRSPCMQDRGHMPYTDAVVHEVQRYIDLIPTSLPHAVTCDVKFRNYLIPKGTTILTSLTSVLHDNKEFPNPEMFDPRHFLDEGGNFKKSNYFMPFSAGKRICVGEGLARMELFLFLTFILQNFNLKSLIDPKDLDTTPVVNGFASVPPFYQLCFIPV

## N#Cc1ccc2ccc(=O)n(CCN3CCC(NCc4ccc5c(c4)NC(=O)CS5(=O)=O)CC3)c2c1
Staphylococcus aureus
  MIC: > 16 µg/mL
Escherichia coli
  MIC: > 16 µg/mL

## N#Cc1ccc2ccc(=O)n(CCN3CCC(NCc4ccc5c(c4)OCC(C(=O)O)O5)CC3)c2c1 (configuration not stated)
Staphylococcus aureus
  MIC: > 16 µg/mL
Escherichia coli
  MIC: > 16 µg/mL

## N#Cc1ccc2ccc(=O)n(CCN3CCC(NCc4ccc5c(c4)CCCC5)CC3)c2c1
Staphylococcus aureus
  MIC: < 0.125 µg/mL
Escherichia coli
  MIC: 1 µg/mL (≈ 2.27 µM)

## O=c1ccc2ccc(C(F)(F)F)cc2n1CCN1CCC(NCc2cc3c(cn2)OCCC3)CC1
Staphylococcus aureus
  MIC: 0.125 µg/mL (≈ 0.257 µM)
Escherichia coli
  MIC: 2 µg/mL (≈ 4.11 µM)

## CCOC(=O)C1COc2ccc(CNC3CCN(CCn4c(=O)ccc5ccc(C#N)cc54)CC3)cc2O1 (configuration not stated)
Staphylococcus aureus
  MIC: > 16 µg/mL
Escherichia coli
  MIC: > 16 µg/mL

## N#Cc1ccc2ccc(=O)n(CCN3CCC(NCc4ccc5c(c4)OCCO5)CC3)c2c1
Cytochrome P450 2C8
  inhibition (INH): Not Active
Cytochrome P450 3A4
  inhibition (INH): Not Active
Staphylococcus aureus
  MIC: < 0.125 µg/mL
Cytochrome P450 1A2
  inhibition (INH): Not Active
Cytochrome P450 2C19
  inhibition (INH): Not Active
Topoisomerase IV
  IC50: 900 nM
Cytochrome P450 2D6
  inhibition (INH): Not Active
DNA gyrase
  IC50: 44 nM

## O=c1c2ccccc2c2ncccc2n1CCN1CCC(NCc2cc3c(cn2)OCCC3)CC1
Staphylococcus aureus
  MIC: 2 µg/mL (≈ 4.26 µM)
Escherichia coli
  MIC: > 16 µg/mL

## O=S1(=O)C=Cc2ccccc2N1CCN1CCC(NCc2cc3c(cn2)OCCC3)CC1
Staphylococcus aureus
  MIC: > 16 µg/mL
Escherichia coli
  MIC: > 16 µg/mL

## O=S1(=O)c2ccccc2-c2ccccc2N1CCN1CCC(NCc2cc3c(cn2)OCCC3)CC1
Staphylococcus aureus
  MIC: > 16 µg/mL
Escherichia coli
  MIC: > 16 µg/mL

## CN1C(=O)C(C)(C)Oc2ccc(CNC3CCN(CCn4c(=O)ccc5ccc(C#N)cc54)CC3)cc21
Staphylococcus aureus
  MIC: > 16 µg/mL
Escherichia coli
  MIC: > 16 µg/mL

## O=c1ccc2ncc(=O)n3c2n1C[C@H]3CN1CCC(NCc2cc3c(cn2)OCCC3)CC1 [GEPOTIDACIN]
[1]
  Cmax: 90 ng/mL
[2]
  fraction unbound: 0.67
Staphylococcus aureus
  MIC: 0.25 µg/mL (≈ 0.557 µM)
[3]
  solubility: 580 µg/mL (≈ 1290 µM)
[4]
  C0: 724 ng/mL
[5]
  AUC(0-t): 244 ng·h/mL
[6]
  MRT: 1.4 h
[7]
  clearance: 60 mL/min/kg
Pseudomonas aeruginosa
  MIC90: 32 µg/mL (≈ 71.3 µM)
[8]
  half-life: 1.7 h
Acinetobacter baumannii
  MIC90: 64 µg/mL (≈ 143 µM)
[9]
  AUC(0-t): 176 ng·h/mL
[10]
  bioavailability: 24%
[11]
  Vd: 5 L/kg
Escherichia coli
  MIC: 0.5 µg/mL (≈ 1.11 µM)
[12]
  Tmax: 2 h
[13]
  solubility: 663 µg/mL (≈ 1480 µM)

## N#Cc1ccc2ccc(=O)n(CCN3CCC(NCc4ccc5c(c4)OC(C(=O)O)CO5)CC3)c2c1 (configuration not stated)
Staphylococcus aureus
  MIC: > 16 µg/mL
Escherichia coli
  MIC: > 16 µg/mL

## N#Cc1ccc2ccc(=O)n(CCN3CCC(NCc4ccc5c(c4)OCC(=O)N5)CC3)c2c1
Staphylococcus aureus
  MIC: > 16 µg/mL
Escherichia coli
  MIC: > 16 µg/mL
